Data reported in PubChem BioAssay AID1259408 (Genetic Toxicology Data Bank (GENE-TOX), 2018).
Calls of active or inactive are those of the source. No rule for the calls is given here.

System: GENE-TOX genotoxicity assays, various organisms and cells
Assay: GENE-TOX mutagenicity studies
Details: for call: Assay Type: In vivo carcinogenicity studies
[1] = Species/Cell Type: Chinese hamster lung (V79) cells, Assay Type: Forward gene mutation at the HPRT or ouabain locus, Assay Code: V79+, Evaluation Type: Evaluation A (Pre-1980)
[2] = Species/Cell Type: Human lymphocytes, Assay Type: Sister-chromatid exchange (SCE) in vitro, Assay Code: SCL+D, Dose Response: With dose response, Evaluation Type: Evaluation B (Post-1980)
[3] = Species/Cell Type: Human, Sex: Male, Assay Type: Sperm morphology, Assay Code: SPH+, Evaluation Type: Evaluation A (Pre-1980)
[4] = Species/Cell Type: Nonhuman, Assay Code: CCG+, Evaluation Type: Evaluation A (Pre-1980)
[5] = Species/Cell Type: Salmonella typhimurium (one or more of the five standard strains: TA98, TA100, TA1535, TA1537, and TA1538), Assay Type: Histidine reverse gene mutation, Ames assay, Assay Code: SAL+, Evaluation Type: Evaluation A (Pre-1980)
[6] = Species/Cell Type: Salmonella typhimurium (one or more of the five standard strains: TA98, TA100, TA1535, TA1537, and TA1538), Assay Type: Histidine reverse gene mutation, Ames assay, Assay Code: SALT, Evaluation Type: Evaluation A (Pre-1980)
[7] = Species/Cell Type: Salmonella typhimurium (one or more of the five standard strains: TA98, TA100, TA1535, TA1537, and TA1538), Assay Type: Histidine reverse gene mutation, Ames assay, Assay Code: SAL+*, Activation: With metabolic activation, Evaluation Type: Evaluation A (Pre-1980)
[8] = Species/Cell Type: Neurospora crassa, Assay Type: Aneuploidy, chromosome aberrations, Assay Code: NEN-, Evaluation Type: Evaluation A (Pre-1980)
[9] = Species/Cell Type: Saccharomyces cerevisiae, Assay Type: Mitotic recombination or gene conversion, Assay Code: YEH-, Evaluation Type: Evaluation A (Pre-1980)
[10] = Species/Cell Type: Drosophila melanogaster, Assay Type: Sex-linked recessive lethal gene mutation, Assay Code: SRLT, Evaluation Type: Evaluation A (Pre-1980)
[11] = Species/Cell Type: Nonhuman, Assay Code: CCG+L, Evaluation Type: Evaluation A (Pre-1980)
[12] = Species/Cell Type: Human, Assay Type: Sister-chromatid exchange (SCE) in vitro, Assay Code: SC1+D, Dose Response: With dose response, Evaluation Type: Evaluation B (Post-1980)
[13] = Species/Cell Type: Nonhuman, Assay Type: Sister-chromatid exchange (SCE) in vivo, Assay Code: SC3+D, Dose Response: With dose response, Evaluation Type: Evaluation B (Post-1980)
[14] = Species/Cell Type: Human lymphocytes, Assay Type: Sister-chromatid exchange (SCE) in vitro, Assay Code: SCL+, Evaluation Type: Evaluation B (Post-1980)

## COc1cccc2c1C(=O)c1c(O)c3c(c(O)c1C2=O)C[C@@](O)(C(=O)CO)C[C@@H]3O[C@H]1C[C@H](N)[C@H](O)[C@H](C)O1
[1]
  mutagenic call: active; positive
Species/Cell Type: Chinese hamster ovary (CHO) cells, Assay Type: Forward gene mutation at the HPRT locus, Assay Code: CHO+, Evaluation Type: Evaluation B (Post-1980)
  mutagenic call: active; positive
Species/Cell Type: Fischer rat embryo (RLV/1706) cells, Assay Type: Cell transformation, viral enhanced, Assay Code: CTR+, Evaluation Type: Evaluation A (Pre-1980)
  mutagenic call: active; positive
Species/Cell Type: Human lymphocytes or leukocytes, Assay Type: Chromosome aberrations in vitro, Assay Code: CY7+, Evaluation Type: Evaluation A (Pre-1980)
  mutagenic call: active; positive
[2]
  mutagenic call: active; positive
Species/Cell Type: Human lymphocytes, Assay Type: Sister-chromatid exchange (SCE) in vivo, Assay Code: SCY+D, Dose Response: With dose response, Evaluation Type: Evaluation A (Pre-1980)
  mutagenic call: active; positive
Species/Cell Type: Human, Assay Type: Sister-chromatid exchange (SCE) in vitro, Assay Code: SC1+D, Dose Response: With dose response, Evaluation Type: Evaluation A (Pre-1980)
  mutagenic call: active; positive
[3]
  mutagenic call: active; positive
Species/Cell Type: Mammalian polychromatic erythrocytes, Assay Type: Micronucleus test, chromosome aberrations, Assay Code: MNT+, Evaluation Type: Evaluation A (Pre-1980)
  mutagenic call: active; positive
Species/Cell Type: Mouse, Sex: Male, Assay Type: Sperm morphology, Assay Code: SPI+, Evaluation Type: Evaluation A (Pre-1980)
  mutagenic call: active; positive
[4]
  call: active; positive
Species/Cell Type: Nonhuman, Assay Type: Sister-chromatid exchange (SCE) in vitro, Assay Code: SC2+D, Dose Response: With dose response, Evaluation Type: Evaluation A (Pre-1980)
  mutagenic call: active; positive
Species/Cell Type: Nonhuman, Assay Type: Sister-chromatid exchange (SCE) in vivo, Assay Code: SC3+D, Dose Response: With dose response, Evaluation Type: Evaluation A (Pre-1980)
  mutagenic call: active; positive
[5]
  mutagenic call: active; positive

## O=C1c2ccccc2C(=O)C1c1ccc2cc(S(=O)(=O)O)cc(S(=O)(=O)O)c2n1
Species/Cell Type: Bacillus subtilis (H17 vs M45), Assay Type: Rec-assay, spot test, DNA effects (bacterial DNA repair), Assay Code: REWT, Evaluation Type: Evaluation A (Pre-1980)
  mutagenic call: no conclusion

## ClC1=CC(c2cc(Cl)ccc2Cl)=C(Cl)[C@H]2O[C@@H]12
[6]
  mutagenic call: no conclusion

## CC(C)(c1ccc(OCC2CO2)cc1)c1ccc(OCC2CO2)cc1 (stereo unspecified)
[7]
  mutagenic call: active; positive

## CC(C)c1ccccc1OC(=O)N(C)N=O
Species/Cell Type: Bacillus subtilis (H17 vs M45T), Assay Type: Rec-assay, spot test, DNA effects (bacterial DNA repair), Assay Code: REX+, Evaluation Type: Evaluation A (Pre-1980)
  mutagenic call: active; positive
Species/Cell Type: Escherichia coli WP2, Assay Type: Tryptophan reverse gene mutation, Assay Code: WP2+, Evaluation Type: Evaluation A (Pre-1980)
  mutagenic call: active; positive

## CO
Species/Cell Type: Mammalian polychromatic erythrocytes, Assay Type: Micronucleus test, chromosome aberrations, Assay Code: MNTT, Evaluation Type: Evaluation B (Post-1980)
  mutagenic call: no conclusion
[8]
  mutagenic call: inactive; negative
Species/Cell Type: Nonhuman, Assay Type: Sister-chromatid exchange (SCE) in vitro, Assay Code: SC2-, Evaluation Type: Evaluation A (Pre-1980)
  mutagenic call: inactive; negative
Species/Cell Type: Syrian hamster embryo (SA7/SHE) cells, Assay Type: Cell transformation, viral enhanced, Assay Code: CT7-, Evaluation Type: Evaluation A (Pre-1980)
  mutagenic call: inactive; negative
Species/Cell Type: Syrian hamster embryo (SHE) cells, Assay Type: Cell transformation, clonal assay, Assay Code: CTC-, Evaluation Type: Evaluation A (Pre-1980)
  mutagenic call: inactive; negative

## C#C[C@]1(O)CC[C@H]2[C@@H]3CCC4=CC(=O)CC[C@@H]4[C@H]3CC[C@@]21C
[3]
  mutagenic call: active; positive
[4]
  call: active; positive

## NCC[C@H](O)C(=O)N[C@@H]1C[C@H](N)[C@@H](O[C@H]2O[C@H](CN)[C@@H](O)[C@H](O)[C@H]2O)[C@H](O)[C@H]1O[C@H]1O[C@H](CO)[C@@H](O)[C@H](N)[C@H]1O
[9]
  mutagenic call: inactive; negative

## ClC(Cl)=C(c1ccc(Cl)cc1)c1ccc(Cl)cc1
[1]
  mutagenic call: active; positive
[10]
  mutagenic call: no conclusion
Species/Cell Type: Escherichia coli polA (W3119 vs P3478), Assay Type: Rec-assay, DNA effects (bacterial DNA repair), Assay Code: RE1T, Evaluation Type: Evaluation A (Pre-1980)
  mutagenic call: no conclusion
Species/Cell Type: Mouse lymphoma (L5178Y) cells, Assay Type: Forward gene mutation at the thymidine kinase (TK) locus, chromosome aberrations, Assay Code: L51+/-*, Activation: With metabolic activation, Evaluation Type: Evaluation A (Pre-1980)
  mutagenic call: inactive; positive without activation, negative with activation
Species/Cell Type: Nonhuman, Assay Type: Chromosome aberrations in vitro, Assay Code: CY&+, Evaluation Type: Evaluation A (Pre-1980)
  mutagenic call: active; positive
[11]
  call: active; positive
[9]
  mutagenic call: inactive; negative
Species/Cell Type: Salmonella typhimurium (one or more of the five standard strains: TA98, TA100, TA1535, TA1537, and TA1538), Assay Type: Histidine reverse gene mutation, Ames assay, Assay Code: SAL-, Evaluation Type: Evaluation A (Pre-1980)
  mutagenic call: inactive; negative
Species/Cell Type: Salmonella typhimurium, Serratia marcesens, Assay Type: Forward and reverse gene mutation, host-mediated assay, Assay Code: HM2-, Evaluation Type: Evaluation A (Pre-1980)
  mutagenic call: inactive; negative

## Oc1cc2cccc3ccc4cc5ccccc5c1c4c32
Species/Cell Type: Chinese hamster lung (V79) cells, Assay Type: Forward gene mutation at the HPRT or ouabain locus, Assay Code: V79-, Evaluation Type: Evaluation A (Pre-1980)
  mutagenic call: inactive; negative
[11]
  call: active; positive
[6]
  mutagenic call: no conclusion

## CCNc1nc(Cl)nc(NC(C)(C)C#N)n1
Species/Cell Type: Drosophila melanogaster, Assay Type: Aneuploidy, partial sex chromosome loss, chromosome aberrations, Assay Code: DAPT, Evaluation Type: Evaluation A (Pre-1980)
  mutagenic call: no conclusion
Species/Cell Type: Drosophila melanogaster, Assay Type: Aneuploidy, sex chromosome gain, chromosome aberrations, Assay Code: DAGT, Evaluation Type: Evaluation A (Pre-1980)
  mutagenic call: no conclusion
Species/Cell Type: Drosophila melanogaster, Assay Type: Aneuploidy, whole sex chromosome loss, chromosome aberrations, Assay Code: DAC-M, Evaluation Type: Evaluation A (Pre-1980)
  mutagenic call: inactive; negative
[10]
  mutagenic call: no conclusion
[8]
  mutagenic call: inactive; negative
Species/Cell Type: Tradescantia species, Assay Type: Chromosome aberrations, Assay Code: TRC+, Evaluation Type: Evaluation A (Pre-1980)
  mutagenic call: active; positive
Species/Cell Type: Vicia faba, Assay Type: Chromosome aberrations, Assay Code: VIC+, Evaluation Type: Evaluation A (Pre-1980)
  mutagenic call: active; positive
Species/Cell Type: Zea mays (corn), Assay Type: Gene mutation, Assay Code: ZEM+, Evaluation Type: Evaluation A (Pre-1980)
  mutagenic call: active; positive

## ClC(Cl)Br
[2]
  mutagenic call: active; positive
[12]
  mutagenic call: active; positive
[13]
  mutagenic call: active; positive
[9]
  mutagenic call: inactive; negative
[5]
  mutagenic call: active; positive

## CC(C)=CCOc1c2occc2cc2ccc(=O)oc12
[14]
  mutagenic call: active; positive
Species/Cell Type: Human, Assay Type: Sister-chromatid exchange (SCE) in vitro, Assay Code: SC1+, Evaluation Type: Evaluation B (Post-1980)
  mutagenic call: active; positive

## O=NN(CCCl)C(=O)NCCCl
[1]
  mutagenic call: active; positive
Species/Cell Type: Drosophila melanogaster, Assay Type: Sex-linked recessive lethal gene mutation, Assay Code: SRL+, Evaluation Type: Evaluation A (Pre-1980)
  mutagenic call: active; positive
[14]
  mutagenic call: active; positive
[12]
  mutagenic call: active; positive
[4]
  call: active; positive
Species/Cell Type: Nonhuman, Assay Type: Sister-chromatid exchange (SCE) in vitro, Assay Code: SC2+D, Dose Response: With dose response, Evaluation Type: Evaluation B (Post-1980)
  mutagenic call: active; positive
[13]
  mutagenic call: active; positive
Species/Cell Type: Saccharomyces cerevisiae, Assay Type: Mitotic recombination or gene conversion, Assay Code: YEC+, Evaluation Type: Evaluation A (Pre-1980)
  mutagenic call: active; positive
[5]
  mutagenic call: active; positive

## CC(=O)OCC1=C(C(=O)O)N2C(=O)[C@@H](NC(=O)Cc3cccs3)[C@H]2SC1
Species/Cell Type: Escherichia coli polA (W3119 vs P3478), Assay Type: Rec-assay, DNA effects (bacterial DNA repair), Assay Code: RE1-, Evaluation Type: Evaluation A (Pre-1980)
  mutagenic call: inactive; negative

## CC1=CCc2c1c(C)c(C)c1c2ccc2ccccc21
[7]
  mutagenic call: active; positive

## c1nnc(NCNc2nncs2)s1
Species/Cell Type: Mammalian polychromatic erythrocytes, Assay Type: Micronucleus test, chromosome aberrations, Assay Code: MNT+U, Dose Response: Unconfirmed positive response, Evaluation Type: Evaluation B (Post-1980)
  mutagenic call: active; positive
